Data published in US10183914B2 (BAYER CROPSCIENCE AKTIENGESELLSCHAFT, priority 2014, dated 2019).

Key:
[1] = test system: Triticum aestivum (spring); test: Post-emergence herbicidal effect and crop plant compatibility; format: in vivo; conditions: visual scoring after about 3 weeks
Method in brief: (§1)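 Test species, both weeds and crops, are raised in sandy loam and treated post-emergence at one leaf. Compounds in WP or EC form are applied with 0.2% wetting agent at 600 to 800 L/ha. Percent herbicidal action against untreated plants is judged by eye about 3 weeks on.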

[2] = logp (HCOOH), physicochemical characterization
Lolium multiflorum [3] = test: Post-emergence herbicidal effect; format: in vivo; conditions: visual scoring after about 3 weeks
Method in brief: as §1

Ipomoea purpurea = test: Post-emergence herbicidal effect; format: in vivo; conditions: scoring after about 3 weeks
Method in brief: as §1

Alopecurus myosuroides [4] = test: Post-emergence herbicidal effect; format: in vivo; conditions: 320 g/ha, visual scoring after about 3 weeks
Method in brief: as §1

Echinochloa crus-galli [5] = test: Post-emergence herbicidal effect; format: in vivo; conditions: visual scoring after about 3 weeks
Method in brief: as §1

Setaria viridis [6] = test: Post-emergence herbicidal effect; format: in vivo; conditions: 320 g/ha (dose by row order of upper half), scoring after about 3 weeks
Method in brief: as §1

[7] = test system: Triticum aestivum (spring); test: Pre-emergence herbicidal effect and crop plant compatibility; format: in vivo; conditions: 3 weeks
Method in brief: (§2)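 Greenhouse pot test in sandy loam: seeds covered with soil, formulated compounds (WP or EC) sprayed onto the soil surface at a water rate of 600 to 800 L/ha with 0.2% wetting agent. At 3 weeks, plant damage was estimated by eye on a 0–100% scale versus untreated pots, where 100% means plants died.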

Zea mays [8] = test: as above; format: in vivo; conditions: 80 g/ha, 3 weeks
Method in brief: as §2

Matricaria inodora = test: Pre-emergence herbicidal effect; format: in vivo; conditions: 3 weeks
Method in brief: as §2

Viola tricolor = test: Pre-emergence herbicidal effect; format: in vivo; conditions: 3 weeks
Method in brief: as §2

Amaranthus retroflexus = test: Pre-emergence herbicidal effect; format: in vivo; conditions: 3 weeks
Method in brief: as §2

Polygonum convolvulus = test: Pre-emergence herbicidal effect; format: in vivo; conditions: 3 weeks
Method in brief: as §2

Lolium multiflorum [9] = test: Pre-emergence herbicidal effect; format: in vivo; conditions: 3 weeks
Method in brief: as §2

Avena fatua [10] = test: Pre-emergence herbicidal effect; format: in vivo; conditions: 3 weeks
Method in brief: as §2

Veronica persica = test: Pre-emergence herbicidal effect; format: in vivo; conditions: 3 weeks
Method in brief: as §2

Alopecurus myosuroides [11] = test: Pre-emergence herbicidal effect; format: in vivo; conditions: 3 weeks
Method in brief: as §2

Stellaria media = test: Pre-emergence herbicidal effect; format: in vivo; conditions: 3 weeks
Method in brief: as §2

Echinochloa crus-galli [12] = test: Pre-emergence herbicidal effect; format: in vivo; conditions: 3 weeks
Method in brief: as §2

Setaria viridis [13] = test: Pre-emergence herbicidal effect; format: in vivo; conditions: 3 weeks
Method in brief: as §2

Zea mays [14] = test: Post-emergence herbicidal effect and crop plant compatibility; format: in vivo; conditions: 80 g/ha, visual scoring after about 3 weeks
Method in brief: as §1

Oryza sativa [15] = test: as above; format: in vivo; conditions: visual scoring after about 3 weeks
Method in brief: as §1

Avena fatua [16] = test: Post-emergence herbicidal effect; format: in vivo; conditions: 320 g/ha, visual scoring after about 3 weeks
Method in brief: as §1

Oryza sativa [17] = test: Pre-emergence herbicidal effect and crop plant compatibility; format: in vivo; conditions: 80 g/ha, 3 weeks
Method in brief: as §2

Cyperus esculentus = test: Pre-emergence herbicidal effect; format: in vivo; conditions: 3 weeks
Method in brief: as §2

Abutilon theophrasti = test: Pre-emergence herbicidal effect; format: in vivo; conditions: 320 g/ha, 3 weeks
Method in brief: as §2

[18] = 320 g/ha (dose by row order of upper half)
[19] = 80 g/ha (dose by row order of upper half)

| Compound | post-emergence efficacy TRZAS ([1]; 80 g/ha) [%] | post-emergence efficacy TRZAS ([1]; 320 g/ha) [%] | post-emergence efficacy ECHCG (Echinochloa crus-galli [5]; 320 g/ha) [%] | ZEAMX herbicidal activity in percent (Zea mays [8]) [%] | MATIN herbicidal activity in percent (Matricaria inodora; 80 g/ha) [%] | MATIN herbicidal activity in percent (Matricaria inodora; 320 g/ha) [%] | VIOTR herbicidal activity in percent (Viola tricolor; 80 g/ha) [%] | VIOTR herbicidal activity in percent (Viola tricolor; 320 g/ha) [%] | AMARE herbicidal activity in percent (Amaranthus retroflexus; 80 g/ha) [%] | AMARE herbicidal activity in percent (Amaranthus retroflexus; 320 g/ha) [%] | POLCO herbicidal activity in percent (Polygonum convolvulus; 80 g/ha) [%] | POLCO herbicidal activity in percent (Polygonum convolvulus; 320 g/ha) [%] | LOLMU herbicidal activity in percent (Lolium multiflorum [9]; 320 g/ha) [%] | AVEFA herbicidal activity in percent (Avena fatua [10]; 320 g/ha) [%] | VERPE herbicidal activity in percent (Veronica persica; 80 g/ha) [%] | VERPE herbicidal activity in percent (Veronica persica; 320 g/ha) [%] | ALOMY herbicidal activity in percent (Alopecurus myosuroides [11]; 320 g/ha) [%] | STEME herbicidal activity in percent (Stellaria media; 80 g/ha) [%] | STEME herbicidal activity in percent (Stellaria media; 320 g/ha) [%] | ECHCG herbicidal activity in percent (Echinochloa crus-galli [12]; 80 g/ha) [%] | other results |
| --- | --- | --- | --- | --- | --- | --- | --- | --- | --- | --- | --- | --- | --- | --- | --- | --- | --- | --- | --- | --- | --- |
| Cc1ccc2c(c1)[C@H](Nc1ncc3c(n1)COCC3=O)[C@@H](C)C2 [2.97] | 0 | 0 | 100 | 0 | 100 | 100 | 100 | 100 | 100 | 100 | 100 | 100 | 100 | 100 | 100 | 100 | 100 | 100 | 100 | 100 | logp (HCOOH) [2]: oily; logp (HCOOH): 3.26; 1H-NMR (CDCl3, 400 MHZ, δ in ppm): ): 1.25 (t, 3H,; post-emergence efficacy LOLMU (Lolium multiflorum [3]; 320 g/ha): 100%; post-emergence efficacy PHBPU (Ipomoea purpurea; [18]): 100%; post-emergence efficacy ALOMY (Alopecurus myosuroides [4]): 100%; post-emergence efficacy ECHCG (Echinochloa crus-galli [5]; 80 g/ha): 90%; post-emergence efficacy SETVI (Setaria viridis [6]): 80%; TRZAS herbicidal activity in percent ([7]; 80 g/ha): 10%; TRZAS herbicidal activity in percent ([7]; 320 g/ha): 20%; ALOMY herbicidal activity in percent (Alopecurus myosuroides [11]; 80 g/ha): 100%; ECHCG herbicidal activity in percent (Echinochloa crus-galli [12]; 320 g/ha): 100%; SETVI herbicidal activity in percent (Setaria viridis [13]; 80 g/ha): 100%; SETVI herbicidal activity in percent (Setaria viridis [13]; 320 g/ha): 100% |
| Cc1ccc2c(c1)[C@H](Nc1ncc3c(n1)CC(C)CC3=O)[C@@H](C)C2 (stereo partly drawn) [2.44] | 0 | 0 | 100 | 10 | 90 | 100 | 100 | 100 | 100 | 100 | 90 | 100 | 100 | 80 | 100 | 100 | 100 | 100 | 100 | 90 | post-emergence efficacy ZEAMX (Zea mays [14]): 10%; post-emergence efficacy ORYSA (Oryza sativa [15]; 80 g/ha): 0%; post-emergence efficacy ORYSA (Oryza sativa [15]; 320 g/ha): 0%; logp (HCOOH) [2]: oily; logp (HCOOH): 3.90;; post-emergence efficacy PHBPU (Ipomoea purpurea; [19]): 100%; post-emergence efficacy PHBPU (Ipomoea purpurea; [18]): 100%; post-emergence efficacy AVEFA (Avena fatua [16]): 90%; post-emergence efficacy ECHCG (Echinochloa crus-galli [5]; 80 g/ha): 100%; ORYSA herbicidal activity in percent (Oryza sativa [17]): 20%; LOLMU herbicidal activity in percent (Lolium multiflorum [9]; 80 g/ha): 100%; AVEFA herbicidal activity in percent (Avena fatua [10]; 80 g/ha): 0%; ALOMY herbicidal activity in percent (Alopecurus myosuroides [11]; 80 g/ha): 80%; ECHCG herbicidal activity in percent (Echinochloa crus-galli [12]; 320 g/ha): 100%; SETVI herbicidal activity in percent (Setaria viridis [13]; 80 g/ha): 100%; SETVI herbicidal activity in percent (Setaria viridis [13]; 320 g/ha): 100% |
| O=C1CCCc2nc(N[C@@H]3CCCc4ccccc43)ncc21 [2.23] | 0 | 0 | 90 | 0 | 100 | 100 | 100 | 100 | 100 | 100 | 100 | 100 | 100 | 90 | 100 | 100 | 100 | 100 | 100 | 80 | post-emergence efficacy ZEAMX (Zea mays [14]): 0%; post-emergence efficacy ORYSA (Oryza sativa [15]; 80 g/ha): 20%; post-emergence efficacy ORYSA (Oryza sativa [15]; 320 g/ha): 20%; post-emergence efficacy LOLMU (Lolium multiflorum [3]; 320 g/ha): 100%; post-emergence efficacy PHBPU (Ipomoea purpurea; [18]): 80%; post-emergence efficacy AVEFA (Avena fatua [16]): 100%; TRZAS herbicidal activity in percent ([7]; 80 g/ha): 0%; ORYSA herbicidal activity in percent (Oryza sativa [17]): 5%; LOLMU herbicidal activity in percent (Lolium multiflorum [9]; 80 g/ha): 80%; CYPES herbicidal activity in percent (Cyperus esculentus; 320 g/ha): 90%; ALOMY herbicidal activity in percent (Alopecurus myosuroides [11]; 80 g/ha): 80%; ECHCG herbicidal activity in percent (Echinochloa crus-galli [12]; 320 g/ha): 100%; SETVI herbicidal activity in percent (Setaria viridis [13]; 80 g/ha): 100%; SETVI herbicidal activity in percent (Setaria viridis [13]; 320 g/ha): 100% |
| Cc1ccc2c(c1)[C@H](Nc1ncc3c(n1)CCCC3=O)[C@@H](C)C2 [2.43] | 10 | 10 | 90 | 20 | 100 | 100 | 100 | 100 | 100 | 100 | 100 | 100 | 100 | 100 | 100 | 100 | 100 | 100 | 100 | 100 | post-emergence efficacy ZEAMX (Zea mays [14]): 0%; post-emergence efficacy ORYSA (Oryza sativa [15]; 80 g/ha): 10%; logp (HCOOH) [2]: solid; logp (HCOOH): 3.45; 1H-NMR (CDCl3, 400 MHZ, δ in ppm): 1.25 (t, 3H, CH3);; post-emergence efficacy LOLMU (Lolium multiflorum [3]; 80 g/ha): 80%; post-emergence efficacy LOLMU (Lolium multiflorum [3]; 320 g/ha): 100%; post-emergence efficacy PHBPU (Ipomoea purpurea; [19]): 80%; post-emergence efficacy AVEFA (Avena fatua [16]): 100%; post-emergence efficacy ECHCG (Echinochloa crus-galli [5]; 80 g/ha): 90%; post-emergence efficacy SETVI (Setaria viridis [6]): 80%; TRZAS herbicidal activity in percent ([7]; 80 g/ha): 0%; ABUTH herbicidal activity in percent (Abutilon theophrasti): 100%; LOLMU herbicidal activity in percent (Lolium multiflorum [9]; 80 g/ha): 100%; CYPES herbicidal activity in percent (Cyperus esculentus; 320 g/ha): 80%; ALOMY herbicidal activity in percent (Alopecurus myosuroides [11]; 80 g/ha): 100%; ECHCG herbicidal activity in percent (Echinochloa crus-galli [12]; 320 g/ha): 100%; SETVI herbicidal activity in percent (Setaria viridis [13]; 80 g/ha): 90%; SETVI herbicidal activity in percent (Setaria viridis [13]; 320 g/ha): 100% |
| O=C1CCCc2nc(N[C@@H]3CCCc4c(F)cccc43)ncc21 [2.13] | 10 | 20 | 100 | 0 | 100 | 100 | 100 | 100 | 100 | 100 | 100 | 100 | 100 | 90 | 100 | 100 | 100 | 100 | 100 | 100 | post-emergence efficacy ZEAMX (Zea mays [14]): 10%; post-emergence efficacy ORYSA (Oryza sativa [15]; 80 g/ha): 0%; post-emergence efficacy ORYSA (Oryza sativa [15]; 320 g/ha): 0%; post-emergence efficacy PHBPU (Ipomoea purpurea; [18]): 100%; post-emergence efficacy ALOMY (Alopecurus myosuroides [4]): 90%; post-emergence efficacy ECHCG (Echinochloa crus-galli [5]; 80 g/ha): 90%; post-emergence efficacy SETVI (Setaria viridis [6]): 100%; TRZAS herbicidal activity in percent ([7]; 80 g/ha): 0%; TRZAS herbicidal activity in percent ([7]; 320 g/ha): 10%; CYPES herbicidal activity in percent (Cyperus esculentus; 80 g/ha): 100%; CYPES herbicidal activity in percent (Cyperus esculentus; 320 g/ha): 100%; ECHCG herbicidal activity in percent (Echinochloa crus-galli [12]; 320 g/ha): 100%; SETVI herbicidal activity in percent (Setaria viridis [13]; 80 g/ha): 100% |
